Results published in US9265747B2, “Platinum (IV) complexes for use in dual mode pharmaceutical therapy” (Massachusetts Institute of Technology, priority 2008, dated 2016).
Entries after “also recorded” stand apart in the source; their conditions may differ.

Assays:
U2OS, human osteosarcoma = assay: MTT assay, U2OS cells; assay type: cell-based; details: 72 hours
Protocol: (§1) Cell Line and Cell Culture. Healthy normal fibroblast GM61869, human cancer NTera-2, human cervical cancer HeLa, human osteosarcoma cell line U2OS were obtained from the ATCC. Cells were incubated at 37° C. in 5% CO2 and grown in DMEM medium supplemented with 10% fetal bovine serum and 1% penicillin/streptomycin. Cells were passed every 3 to 4 days and restarted from the frozen stock upon reaching pass number 20.
(§2) MTT Assay. Cytotoxic behavior of compound 1, DCA and cis-DDP were evaluated using the MTT assay. Solutions of the platinum complexes were freshly prepared in sterile PBS before use and quantitated by atomic absorption spectroscopy. Cells were seeded on a 96 well plate (1000 cells per well for NTera-2, U2OS, HeLa; 1400 per well for normal fibriblast; 500 per well for 7B, 10B, 175F and 150×2) in 100 μL DMEM media and incubated for 24 hours. The cells were then treated with compound 1, DCA or cis-DDP, separately at varying concentrations and incubated for 72 hours at 37° C. The cells were then treated with 20 μL of 3-(4,5-dimethylthiazol-2-yl)-2,5-diphenyltetrazolium bromide (MTT) (5 mg/mL in PBS) and incubated for 5 h. The medium was removed, the cells were lysed by adding 100 μl, of DMSO, and the absorbance of the purple formazan was recorded at 550 nm using a BioTek Synergy HT multi-detection microplate plate reader. Each well was performed in triplicate in three independent experiments for each cell line.

[1] = test system: HeLa, human cervical cancer; assay: MTT assay, HeLa cells; assay type: cell-based; details: 72 hours
Protocol: as §1, §2

[2] = test system: A2780, human ovarian carcinoma; assay: MTT assay, A2780 cells; assay type: cell-based; details: A2780 cisplatin sensitive cells, 72 h
Protocol: (§3) A more negative membrane potential might promote translocation of the active, cationic form of cisplatin from the cytoplasm to mitochondria, thus diminishing platination of nuclear DNA. […] Thus, a pair of cisplatin sensitive A2780 and resistant A2780/CP70 ovarian cancer cells were studied (Table 1 and FIG. 10). […] (▴) with (A) cisplatin sensitive A2780 cells and (B) cisplatin resistant A2780/CP70 cells, after 72 h as determined by the MTT assay. The controls were cisplatin and c,c,t-[Pt(NH3)2Cl2(O2CCH3)2]. […] Results for the A2780/CP70 cells indicate that DCA plays a role, in this embodiment, in making cisplatin-resistant cells susceptible towards mitaplatin treatment.
as §2

[3] = test system: MCF-7, human breast adenocarcinoma; assay: MTT assay, MCF-7 cells; assay type: cell-based
Protocol: [The procedure below names another cell line; the source lists this cell line under the same test.] as §2

[4] = test system: A2780/CP70, cisplatin-resistant human ovarian carcinoma; assay: MTT assay, A2780/CP70 cells; assay type: cell-based; details: 72 h; for IC50: A2780/CP70 cisplatin resistant cells
Protocol: as §3, §2

[5] = test system: NTera-2, human testicular cancer; assay: MTT assay, NTera-2 cells; assay type: cell-based
Protocol: as §1, §2

[6] = test system: MRC-5, normal lung fibroblast; assay: MTT assay, MRC-5 normal cells; assay type: cell-based, human
Protocol: as §2

[7] = test system: A549, human lung carcinoma; assay: MTT assay, A549 cells; assay type: cell-based; details: 72 hours
Protocol: [The procedure below names another cell line; the source lists this cell line under the same test.] as §2

[8] = test system: healthy normal fibroblast cells; assay: JC-1 mitochondrial membrane potential assay, normal fibroblasts; assay type: cell-based; details: 100 μM, 4 h and 48 h
From the text: (§4) The following describes a mitochondrial membrane potential assay using compound 1. JC-1 Assay: Mitochondrial attack is associated with a drop in mitochondrial transmembrane potential (Δψm). For this reason Δψm, is an important parameter of mitochondrial function and has been used as an indicator for mitochondrial death. Variation in Δψm can be studied by evaluating the changes in fluorescence intensity of cells stained with lipophilic cationic dye, 5,5′,6,6′-tetrachloro-1,1′,3,3′-tetraethylbenzimidazolylcarbocyanine iodide (JC-1). It can selectively enter mitochondria and reversibly change color from green to red as the membrane potential increases.
(§5) The negative charge established by the mitochondrial membrane potential allows the lipophilic dye, bearing a delocalized positive charge, to enter the mitochondria where it accumulates. When the critical concentration is exceeded, J-aggregates form, which becomes red. In apoptotic cells, the mitochondrial membrane potential collapses, and the JC-1 can not accumulate within the mitochondria. In these cells, JC-1 remains in the cytoplasm in a green fluorescent monomeric form. Apoptotic cells, showing primarily green fluorescence, are easily differentiated from the healthy cells which show mainly red fluorescence.
(§6) JC-1 Assay. Normal and NTera-2 cells were cultured on cover slips to a density of 1×10^6 cells/mL and incubated overnight at 37° C. […]

[9] = test system: normal fibroblasts and cancerous NTera-2 cells; assay: Co-culture of normal fibroblasts and cancerous NTera-2 cells; assay type: cell-based, human
From the text: Cisplatin kills both NTera-2 and normal fibroblast cells

U2OS = assay: Annexin-V flow cytometry, U2OS cells; assay type: cell-based, human; details: 10 and 20 μM, 72 h
Protocol: (§7) In order to quantify mitaplatin-induced apoptosis in cancer cells, an Annexin-V was performed and analyzed using flow cytometry. With this analysis, the percentage of apoptotic cells found was determined at 72 h after exposure of mitaplatin and cisplatin.

[10] = test system: healthy normal fibroblast cells; assay: TMRM mitochondrial membrane potential assay, normal fibroblasts; assay type: cell-based; details: listed as compound 1
Protocol: (§8) TMRM Assay. Analysis of mitochondrial membrane potential (Δψm) was carried out by using tetramethyl rhodamine methyl ester (TMRM). A similar procedure as mentioned above for the JC-1 assay was followed. Before fixing the cells, they were treated with 2 μM of TMRM for 30 min at 37° C.

HeLa = assay: Annexin-V flow cytometry, HeLa cells; assay type: cell-based, human; details: 10 and 20 μM, 72 h
Protocol: as §7

NTera-2 cells [11] = assay: TMRM mitochondrial membrane potential assay, NTera-2 cells; assay type: cell-based, human; details: listed as compound 1
Protocol: as §8

[12] = Cyclic voltammetry, Pt(IV)/Pt(II) couple; assay type: physicochemical
From the text: Materials and Measurements. The complexes cis-[Pt(NH3)2Cl2], and c, c, t-[Pt(NH3)2Cl2(OH)2] were synthesized as previously described. Distilled water was purified by passage through a Millipore Milli-Q Biocel water purification system (18.2 MΩ) with a 0.22 μm filter. For the detection of cisplatin 1,2-d(GpG) intrastrand adduct, a monoclonal adduct specific antibody R-C18 was used which was a gift from Anti-cytochrome c (Ab-1) sheep polyclonal antibody was procured from Calbiochem. For AIF detection, rabbit polyclonal IgG antibody was used from Santa Cruz Biotechnology, Inc. Alexa Fluor® 488 labeled secondary antibody donkey anti-(sheep IgG) was obtained from Invitrogen for cytochrome c detection. For AIF detection, Alexa Fluor® 546 labeled secondary antibody goat anti-(rabbit IgG) was purchased from Invitrogen. […] JC-1 (5,5′, 6,6′-tetrachloro-1,1′,3,3′ tetraethylbenzimidazolylcarbocyanine iodide) was obtained from Cayman Chemicals. ^1H NMR and ^195Pt NMR spectra were recorded on a Bruker AVANCE-400 NMR spectrometer with a Spectro Spin superconducting magnet in the Massachusetts Institute of Technology Department of Chemistry Instrumentation Facility (MIT DCIF). […] Fluorescence imaging studies were performed with an Axiovert 200M inverted epifluorescence microscope (Zeiss, Thornwood, N.Y.) equipped with an EM-CCD digital camera C9100 (Hamamatsu, Japan). […]

[13] = test system: human lung cancer A549 cells and normal human lung fibroblasts MRC-5; assay: LIVE/DEAD viability assay in co-culture; assay type: cell-based; details: co-culture A549 and MRC-5, exposure for 24 h
Protocol: Studies were also conducted on a co-culture of human lung cancer A549 cells and normal human lung fibroblasts MRC-5. […] The assay allowed for the simultaneous determination of live and dead cells in a co-culture by labeling live cells with calcein AM dye, which fluoresces only when cleaved by intracellular esterase enzymes, and ethidium […] (EthD-1), which only enters dead cells with disrupted cell membranes. […] Following mitaplatin or cisplatin exposure for 24 h, cells were stained with calcein AM (green fluorescence) and ethidium homodimer-1 (red fluorescence) to differentiate between live and dead cells, respectively.

A549 = assay: Annexin-V flow cytometry, A549 cells; assay type: cell-based, human; details: 10 and 20 μM, 72 h
Protocol: as §7

NTera-2 cells [14] = assay: Immunofluorescence detection of cytochrome c and AIF; assay type: cell-based, human; details: treated NTera-2 cells
Protocol: Detection of cytochrome c and AIF. Normal fibroblast or Ntera-2 cells were seeded on microscope coverslips (1 cm) at a confluence of 1600 cells per slip and incubated overnight at 37° C. in DMEM. The medium was changed and compound 1 was added to a final 500 μM. The cells were incubated for 24 or 48 h at 37° C. Medium was then removed and the cells were incubated with fixing solution for 1 h at room temperature followed by three washes with phosphate buffered saline (PBS, pH 7.4). Cells were then fixed with 4% paraformaldehyde in 0.1 M phosphate buffer (pH 7.4) at room temperature for 1 h, washed twice with PBS. Cells were then permeabilize with 0.1% Triton-X100 in PBS for 30 min, followed by six washes with PBS. Cells were then rinsed with blocking buffer (PBS, 0.1% goat serum, 0.075% glycin). Cells were then incubated for 1 h at 37° C. with the anti-cytochrome c (anti-cytochrome c (Ab-1) Sheep pAb, Calbiochem) antibody or AIF (AIF (H-300), Santa Cruz Biotechnology Inc.) antibody both diluted 1:50 in blocking buffer, washed twice with blocking buffer and incubated at 37° C. with Alexa Fluor 488 donkey anti sheep IgG (Invitrogen) antibody for cytochrome c release and Alexa Fluor 546 goat anti-rabbit IgG (Invitrogen) antibody for AIF (dilution 1:50 in blocking buffer) for 1 h. […]

[15] = test system: human cancer NTera-2 cells; assay: JC-1 mitochondrial membrane potential assay, NTera-2 cells; assay type: cell-based; details: 100 μM, 4 h and 48 h
From the text: as §4, §5, §6

normal MRC-5 cells = assay: Annexin-V flow cytometry, normal MRC-5 cells; assay type: cell-based, human; details: 72 h, cisplatin at 10 μM
Protocol: as §7

[16] = test system: NTera, HeLa, U2OS, A549, and MCF-7 cancer cells as well as MRC-5 normal fibroblasts; assay: MTT assay, control experiments in all cells; assay type: cell-based, human
Protocol: The ability of the compound 1 to promote cell death was determined using the MTT assay and the results were compared against those for cisplatin or -2 DCA using NTera, HeLa, U2OS, A549, and MCF-7 cancer cells as well as MRC-5 normal fibroblasts (FIG. 3). […] This enhanced potency of mitaplatin is consistent with the expected dual killing mechanism.
as §2

Compound	cell killing in co-culture [9]	IC50 (U2OS, human osteosarcoma) [µM]	apoptosis (Annexin-V) (U2OS)	apoptosis (Annexin-V) (HeLa)	IC50 [1] [µM]	IC50 [2] [µM]	IC50 ([3]; 72 hours) [µM]	IC50 [4] [µM]	apoptosis (Annexin-V) (A549)	IC50 ([5]; 72 hours) [µM]	IC50 ([6]; 72 hours) [µM]	IC50 [7] [µM]	apoptosis (Annexin-V) (normal MRC-5 cells)	other results
O=C(O)C(Cl)Cl [DCA, Dichloroacetic acid]														IC50 (U2OS, human osteosarcoma; Homo sapiens): > 100 µM; IC50 ([1]; Homo sapiens): > 8 µM; IC50 ([2]; Homo sapiens): > 120 µM; IC50 ([3]; Homo sapiens, MCF7, 72 hours): > 100 µM; IC50 ([4]; Homo sapiens): > 120 µM; IC50 ([5]; Homo sapiens, NTERA2, 72 hours): > 0.4 µM; IC50 ([6]; Homo sapiens, MRC5, 72 hours): > 100 µM; IC50 ([7]; Homo sapiens): > 200 µM
[NH2][Pt]([NH2])([Cl])([Cl])([O]C(=O)C(Cl)Cl)[O]C(=O)C(Cl)Cl [Mitaplatin, c,c,t-[Pt(NH3)2Cl2(O2CCHCl2)2]]	selectively kills the cancer cells	6.4	Apoptosis was detected	Apoptosis was detected	2	1.1	18	3.34	Apoptosis was detected	0.051	18.3	14	did not show any detectable apoptosis	effect on mitochondria (JC-1 fluorescence) [8]: had no effect; mitochondrial membrane potential (Δψm), TMRM [10]: had no effect; also recorded: does not change the Δψm; mitochondrial membrane potential (Δψm), TMRM (NTera-2 cells [11]): significantly depolarizes; also recorded: reverses the hyperpolarization; reduction potential, Pt(IV)/Pt(II) couple ([12]; pH 6.0, 25° C.): −0.152 V vs Ag/AgCl; reduction potential, Pt(IV)/Pt(II) couple ([12]; pH 7.4, irreversible cyclic voltammetric response, 25° C.): ~−0.173 V vs Ag/AgCl; cell death in co-culture, LIVE/DEAD staining [13]: selectively induced cell death in human cancer A549 cells, but not in normal MRC-5 cells; apoptosis inducing factor AIF location (NTera-2 cells [14]): located in the nucleus; cytochrome c distribution (NTera-2 cells [14]): diffusely distributed in the cytoplasm; effect on mitochondria (JC-1 fluorescence) [15]: attacks the mitochondria
cis-[Pt(NH3)2Cl2] [Cisplatin]	kills both the normal and cancer cells	3.9	Apoptosis was detected	Apoptosis was detected	1.2	0.56	13	6	Apoptosis was detected	0.043	9.5	12	showed apoptosis	IC50 ([5]; 72 hours, listed as cis-DDP): 0.05 µM
CC(=O)[O][Pt]([NH2])([NH2])([Cl])([Cl])[O]C(C)=O [c,c,t-[Pt(NH3)2Cl2(O2CCH3)2]]														activity relative to mitaplatin [16]: less active by several fold than mitaplatin; resistance of A2780/CP70 cells to the compound ([4]; A2780/CP70 cells): much more resistant
